From ChEMBL document CHEMBL1122421 (J Med Chem, 1983) come the findings set out here.

In the assay the target is Opioid receptor (Rattus norvegicus, UniProt P33533+P34975+P33535). Nature of the assay: Binding affinity against opiate receptor from rat neural membranes, using [3H]dihydromorphine as radioligand.

Turning to `CN1CCC23c4c5ccc(O)c4O[C@H]2C(O)C=C[C@@]3(NC(=O)CBr)C1C5` (some centres not stated), the IC50 – broadly, the concentration at which inhibition is half-maximal – is recorded as 15 nM.

Compound `CN1CCC23c4c5ccc(O)c4O[C@H]2C(=O)C=C[C@@]3(NC(=O)CBr)C1C5` (some centres not stated) came in with an IC50 of 10 nM. Compared with the last compound, the IC50 is about 1.5-fold lower.
